{
  "source": "patent US6395723B2",
  "about": "“Method of providing coginition enhancement with 5α-pregnan-3β-ol-20-one sulfate” (Wyeth, priority 1997, dated 2002)",
  "assay_type_in_all_cases": "cell-based",
  "key": {"progesterone receptors": {"biological_target": "T1, progesterone receptors (Homo sapiens, UniProt P06401)", "T1 construct": "endogenous in cells; host or cells: T47D human breast cancer cells", "T1 sequence (P06401 1-933)": "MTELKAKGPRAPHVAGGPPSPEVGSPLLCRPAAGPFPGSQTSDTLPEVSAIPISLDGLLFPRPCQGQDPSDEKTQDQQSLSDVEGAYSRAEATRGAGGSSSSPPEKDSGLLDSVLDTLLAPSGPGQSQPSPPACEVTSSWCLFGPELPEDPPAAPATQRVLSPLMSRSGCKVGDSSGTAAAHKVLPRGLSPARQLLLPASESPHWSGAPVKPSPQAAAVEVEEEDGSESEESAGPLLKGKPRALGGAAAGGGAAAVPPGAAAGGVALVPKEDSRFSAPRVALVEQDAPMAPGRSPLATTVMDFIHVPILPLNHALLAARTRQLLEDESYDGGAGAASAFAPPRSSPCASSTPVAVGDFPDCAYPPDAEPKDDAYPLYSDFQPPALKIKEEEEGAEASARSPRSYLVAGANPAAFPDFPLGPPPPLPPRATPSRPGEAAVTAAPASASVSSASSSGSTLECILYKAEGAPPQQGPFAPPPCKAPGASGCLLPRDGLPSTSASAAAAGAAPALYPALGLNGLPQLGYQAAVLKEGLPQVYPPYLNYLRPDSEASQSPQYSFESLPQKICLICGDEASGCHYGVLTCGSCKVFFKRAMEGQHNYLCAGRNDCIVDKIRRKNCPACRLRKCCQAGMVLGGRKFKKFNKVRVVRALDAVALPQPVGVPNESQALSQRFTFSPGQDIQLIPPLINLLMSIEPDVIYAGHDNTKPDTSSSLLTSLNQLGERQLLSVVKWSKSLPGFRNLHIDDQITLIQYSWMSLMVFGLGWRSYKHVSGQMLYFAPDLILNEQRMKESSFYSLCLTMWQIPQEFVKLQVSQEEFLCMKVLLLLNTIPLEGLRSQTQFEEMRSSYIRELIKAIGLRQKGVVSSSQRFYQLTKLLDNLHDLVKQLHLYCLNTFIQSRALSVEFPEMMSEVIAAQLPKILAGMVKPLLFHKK", "assay": "Stimulation of alkaline phosphatase enzyme activity in T47D cells (progestational activity)", "details": "for concentrations required for activity (alkaline phosphatase induction): T47D cells, reference progestins", "excerpt": "In this test procedure, the progestational activity of a compound is quantified based on its stimulation of alkaline phosphatase enzyme activity in T47D cells, a human breast cancer cell line which expresses high levels of progesterone receptors. This is a well established test procedure in which both the progestin receptors and the response stimulated by activated progestin receptors are endogenous to the cells. Cells are pre-conditioned in low serum medium for one day and then treated with test compounds."}, "[1]": {"system": "potassium channel currents", "assay": "Whole cell recording of potassium currents from cultured hippocampal neurons", "details": "2 μM, p=0.0006", "method": "(§1) The neuroprotective and cognition enhancing effects of the compounds of this invention were evaluated in an in vitro standard pharmacological test procedure which measured the effects of 5α-pregnan-3β-ol-20-one 3-sulfate ester sodium salt, as a representative compound of this invention, on calcium and potassium channel currents. Briefly, the following procedure was used.\n(§2) Whole cell recording techniques were used to record calcium and potassium currents from cultured hippocampal neurons. The compounds to be evaluated were made fresh each day in a 400 μM ethanol stock solution. The test compounds were diluted in saline to obtain a final concentration of 2 μM. The amplitude of calcium or potassium currents in control, test compound, and washout solutions was measured from at least 10 current traces for each condition. To compensate for rundown of the calcium current with time, control and washout currents were averaged. The current amplitude with drug was divided by the averaged control and washout current to determine the percent change. The means, standard deviations and errors for each test compound were calculated and significance from control was determined using the paired T-Test."}, "calcium channel currents": {"system": "calcium channel currents", "assay": "Whole cell recording of calcium currents from cultured hippocampal neurons", "details": "2 μM, p=0.044", "method": "as §1, §2"}},
  "note": "pIC50: −log10 of the molar value. Structures can show the parent of a compound that is named as a salt.",
  "data": [
    {"smiles": "CC(=O)[C@H]1CC[C@H]2[C@@H]3CCC4=CC(=O)CC[C@]4(C)[C@H]3CC[C@]12C", "note": "[progesterone]", "values": [
      {"measurement": "concentrations required for activity (alkaline phosphatase induction)", "setting": "progesterone receptors", "value": "low nanomolar"}
    ]},
    {"smiles": "CC(O)C1CCC2C3CCC4CC(O)CCC4(C)C3CCC12C", "note": "(stereo not drawn) [5α-Pregnan-3β,20β-diol]", "values": [
      {"measurement": "increase of potassium channel currents versus control", "setting": "[1]", "value": "21.76±2.40", "unit": "%"}
    ]},
    {"smiles": "CC(=O)[C@H]1CC[C@H]2[C@@H]3CC[C@H]4C[C@@H](OS(=O)(=O)O)CC[C@]4(C)[C@H]3CC[C@]12C", "note": "[5α-pregnan-3β-ol-20-one 3-sulfate ester sodium salt]", "values": [
      {"measurement": "pIC50", "setting": "progesterone receptors", "value": 5.30},
      {"measurement": "decrease of calcium channel currents versus control", "setting": "calcium channel currents", "value": "4.64±1.64", "unit": "%"}
    ]},
    {"smiles": "CC(=O)O[C@]1(C(C)=O)CC[C@H]2[C@@H]3C[C@H](C)C4=CC(=O)CC[C@]4(C)[C@H]3CC[C@@]21C", "note": "[medroxyprogesterone acetate]", "values": [
      {"measurement": "concentrations required for activity (alkaline phosphatase induction)", "setting": "progesterone receptors", "value": "low nanomolar"}
    ]}
  ]
}
